Reference: ChEMBL document CHEMBL1153966, “Synthesis, cytotoxicity, and haemolytic activity of chacotrioside lupane-type neosaponins and their germanicane-type rearrangement products” (Bioorg Med Chem Lett, 2009)

Key:
[1] = Toxicity in sheep erythrocytes assessed as induction of hemolysis; type: cell-based, Ovis aries, Erythrocyte; conditions: read-out: HD50 (the source's name)
A549 = experiment: Cytotoxicity against human A549 cells by resazurin reduction test; type: functional, cell-based
DLD-1 = experiment: Cytotoxicity against human DLD1 cells by resazurin reduction test; type: functional, cell-based
MCF7 = experiment: Cytotoxicity against human MCF7 cells by resazurin reduction test; type: functional, cell-based
PC-3 = experiment: Cytotoxicity against human PC3 cells by resazurin reduction test; type: functional, cell-based
[2] = Cytotoxicity against human WS1 cells by resazurin reduction test; type: cell-based

| SMILES | HC50 [1] [µM] | IC50 (A549) [µM] | IC50 (DLD-1) [µM] | IC50 (MCF7) [µM] | IC50 (PC-3) [µM] | IC50 [2] [µM] |
| --- | --- | --- | --- | --- | --- | --- |
| CC1(C)CC[C@]23CC[C@]4(C)[C@H](CC[C@@H]5[C@@]6(C)CC[C@H](O)C(C)(C)[C@@H]6CC[C@]54C)[C@H]2[C@H]1OC3 [ALLOBETULIN] | > 100 | > 50 | > 50 | > 50 | > 50 | > 50 |
| C=C(C)[C@@H]1CC[C@]2(C)CC[C@]3(C)[C@H](CC[C@@H]4[C@@]5(C)CC[C@H](O[C@@H]6O[C@H](CO)[C@@H](O[C@@H]7O[C@@H](C)[C@H](O)[C@@H](O)[C@H]7O)[C@H](O)[C@H]6O[C@@H]6O[C@@H](C)[C@H](O)[C@@H](O)[C@H]6O)C(C)(C)[C@@H]5CC[C@]43C)[C@@H]12 | 30 | > 50 | > 50 | > 50 | > 50 | > 50 |
| C[C@@H]1O[C@@H](O[C@H]2[C@H](O[C@H]3CC[C@]4(C)[C@H]5CC[C@@H]6[C@H]7[C@H]8OC(=O)[C@@]7(CCC8(C)C)CC[C@@]6(C)[C@]5(C)CC[C@H]4C3(C)C)O[C@H](CO)[C@@H](O[C@@H]3O[C@@H](C)[C@H](O)[C@@H](O)[C@H]3O)[C@@H]2O)[C@H](O)[C@H](O)[C@H]1O | 8 | 13 | 14 | 18 | 10 | 3.8 |
| C=C(C)[C@@H]1CC[C@]2(CO)CC[C@]3(C)[C@H](CC[C@@H]4[C@@]5(C)CC[C@H](O)C(C)(C)[C@@H]5CC[C@]43C)[C@@H]12 [BETULIN] | > 100 | – | – | – | – | 3.6 |
| C=C(C)[C@@H]1CC[C@]2(C(=O)O)CC[C@]3(C)[C@H](CC[C@@H]4[C@@]5(C)CC[C@H](O[C@@H]6O[C@H](CO)[C@@H](O[C@@H]7O[C@@H](C)[C@H](O)[C@@H](O)[C@H]7O)[C@H](O)[C@H]6O[C@@H]6O[C@@H](C)[C@H](O)[C@@H](O)[C@H]6O)C(C)(C)[C@@H]5CC[C@]43C)[C@@H]12 | > 100 | > 50 | > 50 | > 50 | > 50 | > 50 |
| C=C(C)[C@@H]1CC[C@]2(C)CC[C@]3(C)[C@H](CC[C@@H]4[C@@]5(C)CC[C@H](O)C(C)(C)[C@@H]5CC[C@]43C)[C@@H]12 [LUPEOL] | > 100 | > 50 | > 50 | > 50 | > 50 | > 50 |
| C[C@@H]1O[C@@H](O[C@H]2[C@H](O[C@H]3CC[C@]4(C)[C@H]5CC[C@@H]6[C@H]7[C@H]8OC[C@@]7(CCC8(C)C)CC[C@@]6(C)[C@]5(C)CC[C@H]4C3(C)C)O[C@H](CO)[C@@H](O[C@@H]3O[C@@H](C)[C@H](O)[C@@H](O)[C@H]3O)[C@@H]2O)[C@H](O)[C@H](O)[C@H]1O | 90 | 14 | 13 | 15 | 13 | 9 |
| C=C(C)[C@@H]1CC[C@]2(C(=O)O)CC[C@]3(C)[C@H](CC[C@@H]4[C@@]5(C)CC[C@H](O)C(C)(C)[C@@H]5CC[C@]43C)[C@@H]12 [BETULINIC ACID] | > 100 | – | – | – | – | 12 |
| CC1(C)CC[C@]23CC[C@]4(C)[C@H](CC[C@@H]5[C@@]6(C)CC[C@H](O)C(C)(C)[C@@H]6CC[C@]54C)[C@H]2[C@H]1OC3=O | > 100 | > 50 | > 50 | > 50 | > 50 | > 50 |
| C=C(C)[C@@H]1CC[C@]2(CO)CC[C@]3(C)[C@H](CC[C@@H]4[C@@]5(C)CC[C@H](O[C@@H]6O[C@H](CO)[C@@H](O[C@@H]7O[C@@H](C)[C@H](O)[C@@H](O)[C@H]7O)[C@H](O)[C@H]6O[C@@H]6O[C@@H](C)[C@H](O)[C@@H](O)[C@H]6O)C(C)(C)[C@@H]5CC[C@]43C)[C@@H]12 | > 100 | > 50 | > 50 | > 50 | > 50 | > 50 |
